The target of assay [1] is T1, human GPR40 (hGPR40) (Homo sapiens, UniProt O14842).
T1 construct: expressed in transfected cells; host or cells: HEK293 (membranes)
As to the kind of experiment: Radioligand competition binding with [3H]TAK-875, HEK293 membranes. To be noted: 5 nM [3H]TAK-875; Cheng-Prusoff; Mean±SEM. From the text:
Competition curves are plotted as the percent specific inhibition versus concentration of compound and analyzed using a four parameter nonlinear regression fit with variable slope. […] See Cheng, Y. and Prusoff, W. H. (1973) “Relationship between the inhibition constant (Ki) and the concentration of inhibitor which causes 50 percent inhibition (IC50) of an enzymatic reaction,” Biochem Pharmacol 22(23):3099-3108. (Mean±SEM; SEM=standard error of the mean.).
(In a radioligand displacement assay an active substance lowers the binding of a labelled ligand.)

Assay [2] addresses T2, PPARγ (Homo sapiens, UniProt P37231).
T2 construct: expressed in transfected cells; host or cells: CV1 (African green monkey kidney)
T2 sequence (P37231 1-505): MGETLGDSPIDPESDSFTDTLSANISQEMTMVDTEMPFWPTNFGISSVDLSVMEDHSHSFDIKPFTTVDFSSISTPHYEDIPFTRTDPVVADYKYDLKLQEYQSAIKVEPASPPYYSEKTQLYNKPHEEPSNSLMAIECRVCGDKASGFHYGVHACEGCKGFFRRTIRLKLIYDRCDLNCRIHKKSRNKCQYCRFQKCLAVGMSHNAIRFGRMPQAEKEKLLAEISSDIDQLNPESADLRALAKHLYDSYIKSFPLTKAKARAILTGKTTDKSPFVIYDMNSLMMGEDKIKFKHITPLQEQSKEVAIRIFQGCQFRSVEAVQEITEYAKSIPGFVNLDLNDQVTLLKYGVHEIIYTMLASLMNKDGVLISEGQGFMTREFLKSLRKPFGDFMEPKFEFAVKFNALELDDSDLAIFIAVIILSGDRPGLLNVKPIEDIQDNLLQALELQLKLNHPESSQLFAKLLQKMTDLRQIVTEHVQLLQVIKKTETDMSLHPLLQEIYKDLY
T2 sequence (P19793 1-462 partner): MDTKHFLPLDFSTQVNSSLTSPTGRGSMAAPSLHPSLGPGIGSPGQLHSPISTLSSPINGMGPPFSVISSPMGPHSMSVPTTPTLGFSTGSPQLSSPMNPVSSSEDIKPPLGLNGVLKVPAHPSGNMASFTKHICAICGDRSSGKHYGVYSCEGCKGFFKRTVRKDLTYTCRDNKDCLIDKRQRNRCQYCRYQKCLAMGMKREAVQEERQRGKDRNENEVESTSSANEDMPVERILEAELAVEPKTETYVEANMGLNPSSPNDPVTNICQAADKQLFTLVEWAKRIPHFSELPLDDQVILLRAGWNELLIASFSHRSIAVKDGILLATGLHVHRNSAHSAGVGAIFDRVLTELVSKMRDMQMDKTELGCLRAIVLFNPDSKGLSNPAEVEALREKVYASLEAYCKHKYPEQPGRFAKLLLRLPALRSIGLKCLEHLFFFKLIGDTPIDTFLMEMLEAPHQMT
As to the kind of experiment: PPARγ reporter (CTF) functional assay in CV1 cells. To be noted: examined up to 10 M; versus 10 μM PPAR agonist reference compound. It counts as cell-based. As to the method:
(§1) Because GPR40 is known to be activated by ligands to PPARγ, exemplified compounds are examined in Gal4 PPARα, Gal4 PPARδ, and PPARγ reporter assays to determine the selectivity of exemplified compounds for PPAR receptors. CV1 cells, which are derived from the renal tissue of an African green monkey, are transfected with various receptor and reporter plasmids using Fugene. […] After 24 hours incubation with compounds, cells are lysed and luciferase activity is determined as a measure of receptor activation by luminescence. […] The maximum percent stimulation is determined versus maximum stimulation obtained with 10 μM of an appropriate PPAR agonist reference compound, 2-methyl-2-(4-{2-methyl-3-[2-(phenylcarbonyl)-4-(trifluoromethoxy)phenoxy]propoxy}phenoxy)propanoic acid. […] Efficacy was negative for PPARα, PPARδ, and PPARγ is detected with the compound of Example 1 when examined up to […] in the specific PPAR co-transfection (CTF) functional assays described above. […]

Assay [3] addresses T3, PPARα (Homo sapiens, UniProt Q07869).
T3 construct: expressed in transfected cells; host or cells: CV1 (African green monkey kidney)
T3 sequence (Q07869 239-466 limits assumed): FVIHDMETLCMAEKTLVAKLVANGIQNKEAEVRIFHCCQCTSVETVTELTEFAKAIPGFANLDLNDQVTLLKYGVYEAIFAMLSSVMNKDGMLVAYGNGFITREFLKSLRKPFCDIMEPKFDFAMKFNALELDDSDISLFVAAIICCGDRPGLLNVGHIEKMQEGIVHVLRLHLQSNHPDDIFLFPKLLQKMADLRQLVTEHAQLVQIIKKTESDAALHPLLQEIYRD
Briefly: Gal4 PPARα reporter (CTF) functional assay in CV1 cells. It counts as cell-based. To be noted: versus 10 μM PPAR agonist reference compound. The procedure: as §1

In assay [4] the target is T4, PPARδ (Homo sapiens, UniProt Q03181).
T4 construct: expressed in transfected cells; host or cells: CV1 (African green monkey kidney)
T4 sequence (Q03181 211-439 limits assumed): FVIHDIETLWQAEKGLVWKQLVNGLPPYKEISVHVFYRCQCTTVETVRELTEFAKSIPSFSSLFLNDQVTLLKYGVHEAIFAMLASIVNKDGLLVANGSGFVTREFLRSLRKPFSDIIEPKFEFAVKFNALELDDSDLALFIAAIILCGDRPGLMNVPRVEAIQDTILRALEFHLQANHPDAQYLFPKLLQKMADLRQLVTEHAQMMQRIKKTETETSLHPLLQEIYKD
Briefly: Gal4 PPARδ reporter (CTF) functional assay in CV1 cells. It counts as cell-based. The conditions noted are these: examined up to 10 M; versus 10 μM PPAR agonist reference compound. The procedure: as §1

Assay [5] relates to Zucker fa/fa rats. Briefly: Acute oral glucose tolerance test (OGTT). It counts as in vivo, rat. The procedure:
OGTTs are performed in Zucker fa/fa rats, a rodent model of insulin resistance, after 1 and 21 days of orally administered material at 1.0, 3.0 and 10 mg/kg. TAK875 at 1 mg/kg served as the positive control. The OGTTs are performed one hour post compound administration with blood samples taken for determination of glucose and insulin levels at 10, 20, 40, 60, and 120 minutes post glucose administration.

Molecules are shown by their SMILES.

T1 sequence (O14842 whole entry): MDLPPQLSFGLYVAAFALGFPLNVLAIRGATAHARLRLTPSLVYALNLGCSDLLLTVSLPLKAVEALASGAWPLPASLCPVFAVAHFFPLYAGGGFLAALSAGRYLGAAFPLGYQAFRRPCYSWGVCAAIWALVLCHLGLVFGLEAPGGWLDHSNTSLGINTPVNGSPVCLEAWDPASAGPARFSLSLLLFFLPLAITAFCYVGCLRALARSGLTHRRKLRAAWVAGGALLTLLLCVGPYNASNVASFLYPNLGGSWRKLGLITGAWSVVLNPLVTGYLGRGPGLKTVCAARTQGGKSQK

Consider `CC#C[C@@H](CC(=O)O)c1ccc(OCc2cc(-c3ccccc3C)cn3ncnc23)cc1` [Example 1, (S)-3-[4-(6-o-Tolyl-[1,2,4]triazolo[1,5-a]pyridin-8-ylmethoxy)-phenyl]-hex-4-ynoic acid], for which the Ki (as a rule, the equilibrium dissociation constant of an inhibitor or competing ligand from its target) in assay [1] came out at 24.6 nM. Also, the “Efficacy for PPARγ” value in assay [2] is on record as “negative (Efficacy of <20% is considered negative)”. Further, the “Efficacy for PPARα” value in assay [3] is “negative (Efficacy of <20% is considered negative)”. In addition, the “Efficacy for PPARδ” value in assay [4] is “negative (Efficacy of <20% is considered negative)”. The “ED90 for glucose lowering” value in assay [5] (oral) stood at 3.3 mg/kg. Besides, the “Insulin AUCs during the OGTTs” value in assay [5] (oral 1, 3, 10 mg/kg, values not statistically significant) was “dose dependent elevation”. Besides, the “AUCs for glucose lowering” value in assay [5] (oral, Example 1 at 1, 3 and 10 mg/kg, TAK875 at 1 mg/kg, p<0.05) was “statistically significant”.

For the origin of these results see patent publication US9617263B2, “Phenyl-triazolo-pyridine compounds” (Eli Lilly and Company, priority 2014, dated 2017).
